Patent US5698565A, “Use of phenoxy-pyridine derivatives” (Hoffmann-La Roche Inc., priority 1995, dated 1997)

Each compound was assayed against T1, dopamine-D4 receptor (Homo sapiens, UniProt P21917) (assay: [3H]-spiperone binding at the D4 receptor, membranes of D4-CHO cells). Settings: crude membranes from D4-CHO cells, 200 pM [3H]-spiperone, room temperature, 90 minutes.
T1 construct: expressed in transfected cells; host or cells: CHO (Chinese Hamster Ovary) cells, D4-CHO; crude membranes
Protocol: Compounds of formula I were characterized by their binding behavior at the D4 receptor.
CHO cells (Chinese Hamster Ovary) were used in the test. Crude membranes were isolated by ultracentrifugation from D4 -CHO and D2 -CHO cells and were stored at -80° C. After thawing and homogenizing in a buffer solution (50 mM Tris, 1 mM EDTA, 5 mM KCl, 1.5 mM CaCl2, 4 mM MgCl2, pH 7.4) they were incubated at room temperature for 90 minutes with 200 pM [3H]-spiperone and an increasing concentration (1×10^-11 M to 1×10^-4 M) of test compound. A non-specific binding was established by incubating in the presence of 1×10^-5 M (+)-butaclamol. The unbound radioligand was removed by filtration through a GF/C glass filter and the bound radioactivity was determined by scintillation in a Packard TopCount.
The calculation of the value was effected with ligand.

T1 sequence (P21917 whole entry): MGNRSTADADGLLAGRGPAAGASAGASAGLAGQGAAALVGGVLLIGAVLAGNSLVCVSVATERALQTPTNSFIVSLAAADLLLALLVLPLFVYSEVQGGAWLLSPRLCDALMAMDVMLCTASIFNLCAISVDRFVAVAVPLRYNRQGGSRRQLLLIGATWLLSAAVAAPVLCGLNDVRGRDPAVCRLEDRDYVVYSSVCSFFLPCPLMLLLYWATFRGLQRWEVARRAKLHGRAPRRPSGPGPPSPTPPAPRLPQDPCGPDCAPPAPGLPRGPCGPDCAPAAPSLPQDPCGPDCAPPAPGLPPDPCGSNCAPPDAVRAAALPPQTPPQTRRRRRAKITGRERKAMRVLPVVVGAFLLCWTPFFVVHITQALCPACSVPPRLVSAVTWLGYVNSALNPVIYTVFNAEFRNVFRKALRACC

SMILES	Ki [nM]
Cc1cccc(OCC(O)CN2CC=C(c3ccccc3)CC2)c1 (centres unmarked) [Compound 1, 1-(4-Phenyl-3,6-dihydro-2H-pyridin-1-yl)-3-m-tolyloxy-5-propan-2-ol]	< 100
Cc1ccccc1OCC(O)CN1CC=C(c2ccccc2)CC1 (centres unmarked) [Compound 2, 1-(4-Phenyl-3,6-dihydro-2H-pyridin-1-yl)-3-o-tolyloxy-propan-2-ol]	< 100
OC(COc1cccc(C(F)(F)F)c1)CN1CC=C(c2ccccc2)CC1 (centres unmarked) [Compound 3, 1-(4-Phenyl-3,6-dihydro-2H-pyridin-1-yl)-3-(3-trifluoro-methylphenoxy)-propan-2-ol]	< 100
OCc1ccccc1OCC(O)CN1CC=C(c2ccccc2)CC1 (centres unmarked) [Compound 4, 1-(2-Hydroxymethyl-phenoxy)-3-(4-phenyl-3,6-dihydro-2H-pyridin-1-yl)-propan-2-ol]	< 100
COc1ccccc1OCC(O)CN1CC=C(c2ccccc2)CC1 (centres unmarked) [Compound 5, 1-(2-Methoxy-phenoxy)-3-(4-phenyl-3,6-dihydro-2H-pyridin-1-yl)-propan-2-ol]	< 100
CC(=O)Nc1ccccc1OCC(O)CN1CC=C(c2ccccc2)CC1 (centres unmarked) [Compound 6, N-[2-[2-Hydroxy-3-(4-phenyl-3,6-dihydro-2H-pyridin-1-yl)-propoxy]-phenyl]-acetamide]	< 100
CC(=O)c1ccccc1OCC(O)CN1CC=C(c2ccccc2)CC1 (centres unmarked) [Compound 7, 1-[2-[2-Hydroxy-3-(4-phenyl-3,6-dihydro-2H-pyridin-1-yl)-propoxy]-phenyl]-ethanone]	< 100
Cc1ccc(OCC(O)CN2CC=C(c3ccccc3)CC2)cc1C (centres unmarked) [Compound 8, 1-(3,4-Dimethyl-phenoxy)-3-(4-phenyl-3,6-dihydro-2H-pyridin-1-yl)-propan-2-ol]	< 100
CC(=O)Nc1cc(Cl)ccc1OCC(O)CN1CC=C(c2ccccc2)CC1 (centres unmarked) [Compound 9, N-[5-Chloro-2-[2-hydroxy-3-(4-phenyl-3,6-dihydro-2H-pyridin-1-yl)-propoxy]-phenyl]acetamide]	< 100
OC(COc1cccc2ccccc12)CN1CC=C(c2ccccc2)CC1 (centres unmarked) [Compound 10, 1-(Naphthalen-1-yloxy)-3-(4-phenyl-3,6-dihydro-2H-pyridin-1-yl)-propan-2-ol]	< 100
OC(COc1cccc(C(F)(F)F)c1)CN1CC=C(c2ccc(F)cc2)CC1 (centres unmarked) [Compound 11, 1-[4-(4-Fluoro-phenyl)-3,6-dihydro-2H-pyridin-1-yl)-3-(3-trifluoromethyl-phenoxy)-propan-2-ol]	< 100
NC(=O)c1ccccc1OCC(O)CN1CC=C(c2ccc(F)cc2)CC1 (centres unmarked) [Compound 12, 2-[3-[4-(4-Fluoro-phenyl)-3,6-dihydro-2H-pyridinol-yl]-2-hydroxy-propoxy]-benzamide]	< 100
NC(=O)Nc1ccccc1OCC(O)CN1CC=C(c2ccc(F)cc2)CC1 (centres unmarked) [Compound 13, [2-[3-[4-(4-Fluoro-phenyl)-3,6-dihydro-2H-pyridin-1-yl]-2-hydroxy-propoxy]-phenyl]-urea]	< 100
CC(=O)Nc1ccccc1OCC(O)CN1CC=C(c2ccc(Cl)cc2)CC1 (centres unmarked) [Compound 14]	< 100
